Literature values in article PMC5944028, “Nonclinical and clinical pharmacological characterization of the potent and selective cathepsin K inhibitor MIV-711” (Journal of Translational Medicine, 2018).
pIC50: −log10 of the molar value.

Legend:
urinary CTX-II = settings: postmenopausal women with osteoporosis, 12 months; cited from earlier work
[1] = human, weekly dose of 50 mg, cited from earlier work

Row | Structure (SMILES) | Reduction of urinary CTX-II (urinary CTX-II) [%] | mean plasma AUC0–24h [1] [µM·h] | pIC50 ([1]; read-out: trough plasma IC50)
1 | C[C@@H]1CS/C(=N\NC(=O)C(=O)[C@@H](NC(=O)C2CCCCCC2)C2CCOCC2)N1C [ONO-5334, reference compound] | 50 |  | 
2 | CC(C)(F)C[C@H](N[C@@H](c1ccc(-c2ccc(S(C)(=O)=O)cc2)cc1)C(F)(F)F)C(=O)NC1(C#N)CC1 [odanacatib] |  | 6 to 7 | 7.22 to 7.30
